“And” between values parts separate entries of the source, which are not always exact repeats. Equal values may be shown once.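 Cultured in 96-well plates, cells were exposed to test compound for 48 hours across five concentrations. Here, GI50 denotes the concentration required for 50% inhibition of growth. TGI is the concentration that stops growth completely.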

Holding throughout (test): NCI-60 cell line screen, 48 h
In test [1] the test system is OVCAR-4 ovarian.
The test system of test [2] is SK-MEL-5 melanoma.
Test [3] concerns U251 CNS.
Test [4] has as its system IGROV1 ovarian.
In test [5] the test system is HCT-15 colon.
Test [6] concerns A498 renal.
The subject of test [7] is OVCAR-3 ovarian.
The subject of test [8] is SNB-75 CNS.
The subject of test [9] is HCC-2998 colon.
The subject of test [10] is HL-60(TB) leukemia.

Regarding `C=C1CC2(OC1=O)C(=O)N(CCCN1C(=O)C3(CC(=C)C(=O)O3)c3ccccc31)c1ccccc12` (centres undefined), the GI50 in [1] is 1.52 µM; in test [2], 4.96 µM; in test [3], 5.45 µM; in test [4], 1.32 µM; in [5], 0.956 µM; in test [6], 3.12 µM. The GI50 in [7] is 0.571 µM; in [8] it was 3.44 µM; in test [9], 2.14 µM; in [10], 0.831 µM. Besides, the TGI came to 3.14 µM in test [1]; 16.7 µM in test [2]; 18.7 µM in [3]; 2.68 µM in [4]; 2.55 µM in [5]; 17 µM in [6]. Besides, the TGI was determined as 1.83 µM in [7], 26.8 µM in [8], 4.53 µM in [9] and 2.85 µM in test [10].

Take `C#CCC(N)(CO)C(=O)O` (centres undefined): the TGI in test [1], in test [2], in test [3], in test [4], in test [5] and in test [6] was above 100 µM in each case. Moreover, the TGI in test [7], in test [8], in [9] and in [10] was above 100 µM throughout.

Take `CC(=O)OC1COC(n2c(=S)n(-c3ccccc3)c(=O)c3cc(Br)ccc32)C(OC(C)=O)C1OC(C)=O` (centres undefined): the TGI is 31.6 µM in test [1]; above 100 µM in [2]; 44.5 µM in test [3]; above 100 µM in [4]; above 100 µM in test [5]; above 100 µM in test [6]. Further, the TGI in test [7] is above 100 µM; in test [8], 30.6 µM; in [9] it was above 100 µM; in test [10], above 100 µM.

For the compound `Cl[Si]1(Cl)Oc2ccccc2O[Si](Cl)(Cl)Oc2ccccc2O1`, the TGI in test [1] was 24.7 µM; in test [2], 27 µM; in [3] it was above 100 µM; in test [4] it was above 100 µM; in [5], above 100 µM; in test [6], above 100 µM. The TGI in test [7] is above 100 µM; in test [8], 99.1 µM; in test [9], 53.5 µM; in test [10] it was 4.63 µM.

`CCN(CC)CCNC(=O)c1c(C)[nH]c(/C=C2\C(=O)Nc3ccc(F)cc32)c1C`: the GI50 in test [1] is > 10 µM and 2.41 µM and 2.76 µM; in test [2], 1.66 µM and 2.88 µM and 1.5 µM; in test [3], 5.33 µM and 3.06 µM and 2.25 µM; in test [4] it was 1.48 µM and 2.63 µM and 2.05 µM; in test [5], 1.22 µM and 1.23 µM and 1.13 µM; in [6], > 10 µM and 2.21 µM and 2.84 µM. Besides, the GI50 in test [7] was > 10 µM and 3.41 µM and 3.33 µM; in test [8], 4.61 µM and 2.11 µM and 4.33 µM; in [10] it was 0.353 µM and 2.42 µM and 0.847 µM. In addition, the TGI in test [1] is > 10 µM and 9.23 µM and 15 µM; in test [2], 4.5 µM and 5.62 µM and 2.92 µM; in [3], > 10 µM and 6.34 µM and 7.54 µM; in [4] it was > 10 µM and 20 µM and 15.9 µM; in test [5], > 10 µM and 20 µM and 13.3 µM; in test [6], > 10 µM and 4.83 µM and 15.4 µM. Moreover, the TGI is > 10 µM and 6.34 µM and 7.54 µM in test [7]; > 10 µM and 4.55 µM and 14 µM in test [8]; > 10 µM and 7.03 µM and 3.06 µM in [9]; 4.34 µM and 6.34 µM and 4.13 µM in test [10].

For `O=S(=O)(CCOCc1ccc(-c2ccc3ncnc(Nc4ccc(OCc5cccc(F)c5)c(Cl)c4)c3c2)o1)c1ccccc1`, the GI50 is above 25 µM in [1]; above 25 µM in [2]; above 25 µM in test [3]; above 25 µM in [4]; above 25 µM in test [5]; above 7 µM in [6]. The GI50 in test [7], in test [8], in [9] and in [10] was above 25 µM throughout. The TGI in [1], in [2], in test [3], in test [4], in test [5] and in [6] was above 25 µM in each case. Moreover, the TGI in test [7], in [8], in test [9] and in test [10] was above 25 µM in each case.

Turning to `Cc1ccc(S(=O)(=O)N/N=C(\c2nc3ccc([N+](=O)[O-])cc3[nH]c2=O)C(O)c2ccccc2Cl)cc1` (centres undefined), the TGI in [1], in test [2], in [3], in test [4], in test [5] and in [6] was above 100 µM throughout. In addition, the TGI in [7], in [8], in test [9] and in test [10] was above 100 µM in each case.

Take `CCCCCCCCCCCC[n+]1ccccc1` (tested in a mixture with another compound): the GI50 in test [1] is 0.683 µM; in test [2], 0.342 µM; in test [3] it was 0.443 µM; in test [4], 0.519 µM; in test [5], 3.8 µM; in test [6], 1.84 µM. The GI50 in test [7] was 0.722 µM; in [8], 1.08 µM; in [9], 0.646 µM; in [10] it was 0.253 µM. The TGI was 12.4 µM in test [1]; 1.36 µM in test [2]; 2.2 µM in test [3]; 2.28 µM in [4]; 19.3 µM in test [5]; 7.25 µM in test [6]. Further, the TGI in test [7] is 2.44 µM; in test [8], 3.84 µM; in [9], 2.12 µM; in test [10], 1.04 µM.

Regarding `CCC(=C(c1ccc(OCCCN(C)C)cc1)c1ccc(OCCCN(C)C)cc1)c1ccc(Cl)cc1`, the GI50 in [1] is 0.922 µM; in test [2], 2.02 µM; in test [3] it was 0.419 µM; in [4], 0.429 µM; in test [5], 0.365 µM; in [6] it was 1.7 µM. Also, the GI50 is 0.429 µM in test [7], 1.56 µM in test [8], 0.51 µM in [9] and 0.372 µM in test [10]. Moreover, the TGI in test [1] was found to be 2.41 µM; in test [2], 4.37 µM; in test [3] it was 1.1 µM; in test [4], 1.15 µM; in [5], 0.864 µM; in test [6] it was 4.39 µM. Further, the TGI in [7] amounted to 1.08 µM; in [8], 3.89 µM; in test [9] it was 1.54 µM; in test [10], 0.941 µM.

(Values after PubChem BioAssay (NCI).)
